# Laboratory results: PubChem BioAssay (NCI)
#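 Assay format: 96-well plates, 48-hour exposure. GI50 is the concentration that inhibits growth by half. TGI marks complete inhibition of growth.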
# Legend:
# Test in all cases: NCI-60 cell line screen, 48 h
# DU-145 prostate = tested on: DU-145 prostate
# SK-OV-3 ovarian = tested on: SK-OV-3 ovarian
# OVCAR-4 ovarian = tested on: OVCAR-4 ovarian
# SK-MEL-2 melanoma = tested on: SK-MEL-2 melanoma
# HL-60(TB) leukemia = tested on: HL-60(TB) leukemia
# SNB-19 CNS = tested on: SNB-19 CNS
# EKVX NSCLC = tested on: EKVX NSCLC
# HCT-116 colon = tested on: HCT-116 colon
# NCI/ADR-RES ovarian = tested on: NCI/ADR-RES ovarian
# T-47D breast = tested on: T-47D breast
Structure (SMILES),GI50 (DU-145 prostate),TGI (DU-145 prostate),GI50 (SK-OV-3 ovarian),TGI (SK-OV-3 ovarian),GI50 (OVCAR-4 ovarian),TGI (OVCAR-4 ovarian),GI50 (SK-MEL-2 melanoma),TGI (SK-MEL-2 melanoma),TGI (HL-60(TB) leukemia),TGI (SNB-19 CNS),TGI (EKVX NSCLC),TGI (HCT-116 colon),GI50 (HL-60(TB) leukemia),GI50 (NCI/ADR-RES ovarian),TGI (NCI/ADR-RES ovarian),GI50 (T-47D breast),TGI (T-47D breast),GI50 (SNB-19 CNS),GI50 (HCT-116 colon),GI50 (EKVX NSCLC)
COc1cc2c(-c3nc4cc(Cl)c(F)cc4s3)cc(=O)oc2c(C)c1OC,1.62 µM,3.05 µM,1.63 µM,3.03 µM,1.65 µM,3.16 µM,2.07 µM,3.9 µM,,,,,,,,,,,,
CCc1nc2c(O)ccc(O)c2nc1C,,,,34.2 µM,,17.3 µM,,32.2 µM,> 21.7 µM,33.7 µM,31.1 µM,20.9 µM,,,,,,,,
O=C1Nc2ccc(F)c3c(OCCO)cc(-c4ccc[nH]4)c1c23,1.97 µM,10.3 µM,1.47 µM,25 µM,1.44 µM,12.1 µM,1.4 µM,6.51 µM,7.44 µM,14.9 µM,,20.4 µM,1.14 µM,4.01 µM,20.1 µM,0.513 µM,1.52 µM,3.66 µM,1.15 µM,
C[C@]12CC[C@H](O)CC1=CC[C@@H]1[C@@H]2CC[C@]2(C)C(=O)/C(=C/c3cccc(OCCCn4ccnc4)c3)C[C@@H]12,19.9 µM,38.7 µM,17.4 µM,62.7 µM,19.6 µM,64.6 µM,19.9 µM,51 µM,44.7 µM,77.3 µM,46.3 µM,30.2 µM,13.8 µM,,,12.4 µM,31.3 µM,27 µM,15 µM,21.1 µM
COC1=CC(c2ccc[nH]2)=N/C1=C\c1[nH]c(C)c(C(=O)CCC(=O)Oc2ccc3c(c2)CCC2C3CC[C@]3(C)C(=O)CC[C@@H]23)c1C (stereo not given in full),1.58 µM,> 100 µM,> 100 µM,> 100 µM,13.1 µM,> 100 µM,15.6 µM,58.7 µM,> 100 µM,> 100 µM,,> 100 µM,50.2 µM,12.6 µM,> 100 µM,13.9 µM,> 100 µM,17.7 µM,0.773 µM,
COCCNCC(O)Cn1c2ccc(Cl)cc2c2cc(Cl)ccc21 (stereo not given),2.12 µM,4.05 µM,2.46 µM,5.93 µM,2.01 µM,5.2 µM,2.16 µM,4.18 µM,4.51 µM,16.6 µM,,,2.05 µM,2.39 µM,5.59 µM,1.97 µM,4.03 µM,3.48 µM,,
CCOC(C)OCC#CCCBr (stereo not given),,,,> 100 µM,,> 100 µM,,> 100 µM,> 100 µM,> 100 µM,> 100 µM,> 100 µM,,,,,,,,
O=C1CCC2(c3ccc(F)cc3)Nc3ccccc3N12 (stereo not given),,,,> 100 µM,,> 100 µM,,> 100 µM,> 100 µM,,> 100 µM,,,,,,,,,
COc1ccc(/C=C2/CN(C(=O)c3ccccc3F)C/C(=C\c3ccc(OC)cc3)C2=O)cc1,7.47 µM,23.9 µM,4.58 µM,18.3 µM,6.02 µM,> 100 µM,15.3 µM,35.8 µM,,20.7 µM,,1.39 µM,,3.49 µM,82.5 µM,5.65 µM,76.2 µM,6.21 µM,0.392 µM,
O=[N+]([O-])c1ccccc1S(=O)c1ccccc1 (stereo not given),,,,> 100 µM,,> 100 µM,,> 100 µM,> 100 µM,> 100 µM,,> 100 µM,,,,,,,,
N#C/C(=C\c1ccc(CP(=O)(O)O)cc1)C(N)=O,,,,> 100 µM,,> 100 µM,,> 100 µM,> 100 µM,> 100 µM,> 100 µM,> 100 µM,,,,,,,,
C=C1C(=O)O[C@@H]2C[C@]3(C)[C@@H](C[C@H]12)[C@](C)(O)CC[C@@H]3O,,,,> 100 µM,,> 100 µM,,> 100 µM,,> 100 µM,> 100 µM,> 100 µM,,,,,,,,
c1ccc2c(c1)O[As](O[As]1Oc3ccccc3O1)O2,3.96 µM,15.2 µM,11.7 µM,26 µM,2.49 µM,19.7 µM,2.76 µM,8.61 µM,3.92 µM,19.6 µM,,14.1 µM,1.49 µM,3.58 µM,> 100 µM,1.69 µM,14.6 µM,5.56 µM,3.17 µM,
O=CC1=CCCC2(C1)OCCO2,,,,> 100 µM,,> 100 µM,,> 100 µM,> 100 µM,> 100 µM,> 100 µM,> 100 µM,,,,,,,,
Cc1c(/C=C2\CC/C(=C\c3[nH]c(C(=O)OC(C)(C)C)c(C)c3C)C2=O)[nH]c(C(=O)OC(C)(C)C)c1C,,,,> 100 µM,,> 100 µM,,> 100 µM,> 100 µM,> 100 µM,> 100 µM,> 100 µM,,,,,,,,
CC(=O)O[C@]1(C(C)=O)CC[C@H]2[C@@H]3C[C@H](C)C4=CC(=O)C=C[C@]4(C)[C@@]3(F)[C@@H](O)C[C@@]21C,,,,51 µM,,90.8 µM,,,> 100 µM,> 100 µM,> 100 µM,> 100 µM,,,,,,,,
OCC(O)CC[CH2][Sn]([c]1ccccc1)([c]1ccccc1)[c]1ccccc1 (stereo not given),,,19.7 µM,34.1 µM,16.5 µM,32.2 µM,15.3 µM,29 µM,35.3 µM,33.7 µM,31.7 µM,22.7 µM,11.3 µM,,,,,19.4 µM,10.8 µM,16.5 µM
COc1cc2c(cc1OC)C1c3ccccc3C(C#N)(C2)N(C(=O)c2ccccc2)C1O (stereo not given),,,,> 100 µM,,,,> 100 µM,> 100 µM,> 100 µM,> 100 µM,> 100 µM,,,,,,,,
O=c1/c(=C/c2cccc3ccccc23)sc2nc3ccccc3n12,,,,,,> 100 µM,,> 100 µM,> 100 µM,> 100 µM,> 100 µM,> 100 µM,,,,,,,,
[Cu+2].[Cu+2].[O-]c1ccccc1C=Nc1ccccc1[O-].[O-]c1ccccc1C=Nc1ccccc1[O-],,,25.5 µM,40.4 µM,2.6 µM,8.23 µM,11.5 µM,24.4 µM,7.24 µM,17.8 µM,25.9 µM,6.55 µM,2.52 µM,,,,,5.32 µM,2.47 µM,11.8 µM
